The text below walks through data of PMC7136958, “Targeting the pregnane X receptor using microbial metabolite mimicry” (EMBO Molecular Medicine, 2020).

Values joined by “and” are separate entries in the source; they are usually repeats but may differ in a detail not shown here. Equal values may be shown once.

One assay deals with RXR. Briefly: [11,12-3H(N)] 9-cis retinoic acid binding competition assay (RXR ligand binding), rat liver nuclear extracts. The settings on record: 39.94 nM compound, 0.66 nM radioligand. On the procedure:
8), 50 mM NaCl, 0.1 mM EDTA, 1 mM DTT, 1 mM PMSF, and 1% DMSO. The substrate is 3H-CoA (acetyl coenzyme A) and the incubation time is for 1 h at 30° C. The radioactivity in mixture is detected on washed filter paper using a scintillation counter. The Histone Deacetylase (HDAC) fluorescent activity assay (HDAC1-3) is based on the using 2X purified human enzyme mixed with the reaction buffer (50 mM Tris-HCl pH 8, 137 mM NaCl, 2.7 mM KCl, and 1 mM MgCl2, 1 mg/mL fresh BSA and 1% fresh DMSO) and then compounds (in 100% DMSO) are titrated in using Acoustic Technology.
The 2X HDAC substrate is a fluorogenic acetylated peptide from p53 (residues 379 - 38 2 RHKK(Ac)AMC) which is mixed in with the enzyme-compound complex and incubated for 1-2 h at 30 °C. In the development step, a proprietary developer with trichostatin A (or TMP269) is added to stop the reaction and to generate fluorescent color which is read using an EnVision Multilabel Plate Reader (Perkin Elmer) (Ex 360 nm/ Em 460 nm). For all enzyme activity assays, the percentage of enzyme activity (relative to DMSO controls) and IC50 values were calculated using GraphPad Prism 4 program (sigmoidal dose response equations).
Isolation of cell nuclei. Rat liver nuclear fraction was prepared from rat livers by the procedure established and optimized previously 19. […]

The target of a further assay is T1, PRMT1 (Homo sapiens, UniProt Q99873).
T1 construct: purchased Reaction Biology Corp
Description: Histone methyltransferase assay (Reaction Biology). It is filed as biochemical. As to conditions: substrate Histone H4, replicates. Here is the method: Software Tool and reprinted with permission from KINOME scan®, a division of DiscoveRx […]
The following […] assays (HDAC, SIRT1, PRMT1, PARP1, p300, pCAF) were performed by Reaction Biology Corp. FKK6 was screened at a single concentration of 10 μM in duplicate in two separate experiments. The appropriate controls for the individual assays are published. The overall […]
enzyme activity in the assay is reported as a % activity in DMSO control wells. Control IC50 […]
Briefly, for the Sirtuin (SIRT1) assay, human SIRT1 (GenBank
Accession No. NM012238) full -length N-terminal His-tag protein (MW 83.2 kDa) was purified after expression in E. coli. The reaction buffer was freshly prepared and constituted 50 mM Tris-HC l ( p H 8), 137 mM NaCl, 2.7 mM KCl, 1 mM MgCl2, and just before use, 1 mg/mL BSA and 1% DMSO was added. The substrate was a fluorogenic acetylated peptide of p53 residues 379-382 (RHKK (Ac)- AM C) . In th e multi-well format, the 2X enzyme was mixed with the reaction buffer followed by compound (in 100% DMSO) titration via Acoustic technology (Echo550; LabCyte Inc, Sunnyvale, CA) in the nanoliter range. The mixture was spun down and 2X substrate (including NAD+) was added to initiate the reaction at 30° C at 2h under seal. […]

T1 sequence (Q99873 whole entry, species assumed): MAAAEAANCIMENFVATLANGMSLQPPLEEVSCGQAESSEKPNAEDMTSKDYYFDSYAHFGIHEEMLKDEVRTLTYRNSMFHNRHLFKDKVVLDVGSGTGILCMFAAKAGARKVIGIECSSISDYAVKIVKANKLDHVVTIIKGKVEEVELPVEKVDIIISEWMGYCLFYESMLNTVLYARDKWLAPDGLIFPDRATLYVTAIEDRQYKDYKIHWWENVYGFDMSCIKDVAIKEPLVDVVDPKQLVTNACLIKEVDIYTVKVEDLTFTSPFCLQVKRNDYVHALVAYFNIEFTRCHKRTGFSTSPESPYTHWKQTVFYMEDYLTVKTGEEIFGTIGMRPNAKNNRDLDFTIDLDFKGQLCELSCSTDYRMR

On to `O=S(=O)(c1ccccc1)n1c(C(O)c2ccncc2)cc2ccccc21` (racemic) [FKK1], for which, in the assay on RXR, the “displacement of [3H]-9-cis-retinoic acid” value is “significant displacement”.
For `C#CCC(O)(c1ccncc1)c1cc2ccccc2n1S(=O)(=O)c1ccccc1` (stereo not drawn) [FKK6], the “% Enzyme Activity to DMSO controls” value at PRMT1 (10 μM) was 88.77% and 78.47% and 81.3%. On PRMT1 (read-out: % Enzyme Activity to DMSO controls), the remaining activity at 10 µM stood at 86.4%.
